Measured values from ChEMBL document CHEMBL4706683 (J Med Chem, 2021).
Activity calls are given as the source filed them. No cut-off for these calls is given here.

Tests used:
Plasmodium falciparum [1] = test: Antiplasmodial activity against Plasmodium falciparum C2A infected in human erythrocytes assessed as reduction in parasite growth incubated for 72 hrs by Giemsa staining based light microscopic method; assay type: functional, organism-based; settings: Erythrocyte
Plasmodium falciparum [2] = test: Antiplasmodial activity against Plasmodium falciparum CP286 infected in human erythrocytes assessed as reduction in parasite growth incubated for 72 hrs by Giemsa staining based light microscopic method; assay type: functional, organism-based; settings: CP286, Erythrocyte
Plasmodium falciparum [3] = test: Antiplasmodial activity against artemisinin-resistant Plasmodium falciparum 6218 infected in human erythrocytes assessed as reduction in parasite growth incubated for 72 hrs by Giemsa staining based light microscopic method; assay type: functional, organism-based; settings: Plasmodium falciparum, 6218, Erythrocyte
[4] = Clearance in mouse liver microsomes incubated upto 45 mins in presence of NADPH by LC-MS/MS analysis; assay type: ADME, Microsome; settings: read-out: CLH
[5] = Toxicity in Balb/c mouse infected with blood stage Plasmodium yoelii assessed as animal death at 10 to 30 mg/kg, ip QD for 5 consecutive days and measured on day 6; assay type: organism-based; settings: in vivo, 120 h, dose 10-30 mg/kg, time 5 day
Plasmodium yoelii = test: Antiplasmodial activity against blood stage Plasmodium yoelii infected in Balb/c mouse assessed as reduction in parasitemia at 10 to 30 mg/kg, ip QD for 5 consecutive days and measured on day 20 by microscopic analysis; assay type: functional, organism-based; settings: dose 10-30 mg/kg, time 5.0 day
Plasmodium berghei = test: Antiplasmodial activity against liver stage Plasmodium berghei infected in Balb/c mouse assessed as reduction in parasitemia at 30 mg/kg, ip administered as single dose and measured upto 96 hrs by microscopic analysis; assay type: functional, organism-based; settings: time hrs <=96
Plasmodium falciparum [6] = test: Antiplasmodial activity against schizont stage Plasmodium falciparum 3D7 infected in human erythrocytes assessed as reduction in parasitemia at 10 times IC50 incubated for 12 hrs followed by compound washout and measured at 96 hrs post infection by […] analysis; assay type: functional, organism-based; settings: Erythrocyte
Plasmodium falciparum [7] = test: Inhibition of Plasmodium falciparum HDAC assessed as hyperacetylation of histone H3 at 20 times IC50 incubated for 4 hrs by Western blot analysis
Plasmodium falciparum [8] = test: Antimalarial activity against synchronized schizont stage transgenic Plasmodium falciparum 3D7 with C-terminal glmS-fused HDAC2 knockdown assessed as parasite growth inhibition pretreated with glucosamine followed by compound treatment and incubated for 4 hrs followed by compound washout for thrice and subsequent culturing for 68 hrs by SYBR Green 1 staining based analysis; assay type: functional, organism-based
[9] = Inhibition of recombinant full length C-terminal His/FLAG-tagged Plasmodium falciparum HDAC1 expressed in baculovirus infected sf9 insect cells using fluorogenic […] as substrate preincubated for 1.5 hrs followed by substrate addition and measured after 30 mins by HDAC-GloI/II assay
Histone deacetylase 1 = Histone deacetylase 1 (Homo sapiens, UniProt Q13547); assay type: ADME, cell-based, Sf9
Sequence of Histone deacetylase 1 (Q13547 whole entry): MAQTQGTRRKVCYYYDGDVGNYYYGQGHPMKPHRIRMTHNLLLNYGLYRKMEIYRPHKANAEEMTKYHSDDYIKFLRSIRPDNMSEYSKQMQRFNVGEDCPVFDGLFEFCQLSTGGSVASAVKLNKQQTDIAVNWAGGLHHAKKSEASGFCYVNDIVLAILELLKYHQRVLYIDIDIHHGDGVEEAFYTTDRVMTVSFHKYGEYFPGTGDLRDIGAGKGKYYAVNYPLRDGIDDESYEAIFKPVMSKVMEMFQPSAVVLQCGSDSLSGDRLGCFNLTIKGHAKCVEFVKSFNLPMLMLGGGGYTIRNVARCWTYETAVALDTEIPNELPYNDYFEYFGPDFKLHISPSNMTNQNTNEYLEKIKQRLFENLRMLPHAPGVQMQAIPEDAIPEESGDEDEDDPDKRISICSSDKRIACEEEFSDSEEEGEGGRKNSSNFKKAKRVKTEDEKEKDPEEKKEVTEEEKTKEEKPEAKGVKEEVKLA

[10] = molecular target: Histone deacetylase 3/Nuclear receptor corepressor 2 (HDAC3/NCoR2) (Homo sapiens, UniProt O15379); test: Inhibition of human C-terminal His-tagged HDAC3/N-terminal GST-tagged NCOR2 expressed in baculovirus infected Sf9 cells using Ac-peptide as substrate preincubated for 15 mins followed by substrate and trypsin addition and further incubated for 60 mins
Sequence of Histone deacetylase 3/Nuclear receptor corepressor 2 (HDAC3/NCoR2) (O15379 whole entry): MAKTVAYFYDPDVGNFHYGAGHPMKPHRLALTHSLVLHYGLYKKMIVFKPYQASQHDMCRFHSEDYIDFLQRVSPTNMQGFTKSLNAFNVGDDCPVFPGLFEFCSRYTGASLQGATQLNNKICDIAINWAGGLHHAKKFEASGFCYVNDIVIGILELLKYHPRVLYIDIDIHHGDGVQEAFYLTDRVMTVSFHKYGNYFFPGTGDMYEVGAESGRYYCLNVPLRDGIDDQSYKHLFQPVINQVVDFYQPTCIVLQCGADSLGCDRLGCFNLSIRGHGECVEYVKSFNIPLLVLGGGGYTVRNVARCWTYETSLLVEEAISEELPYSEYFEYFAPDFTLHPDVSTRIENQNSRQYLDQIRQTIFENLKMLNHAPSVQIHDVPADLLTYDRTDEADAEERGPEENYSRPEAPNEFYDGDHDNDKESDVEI
Sequence of Histone deacetylase 3/Nuclear receptor corepressor 2 (HDAC3/NCoR2) (Q9Y618 whole entry, further chain): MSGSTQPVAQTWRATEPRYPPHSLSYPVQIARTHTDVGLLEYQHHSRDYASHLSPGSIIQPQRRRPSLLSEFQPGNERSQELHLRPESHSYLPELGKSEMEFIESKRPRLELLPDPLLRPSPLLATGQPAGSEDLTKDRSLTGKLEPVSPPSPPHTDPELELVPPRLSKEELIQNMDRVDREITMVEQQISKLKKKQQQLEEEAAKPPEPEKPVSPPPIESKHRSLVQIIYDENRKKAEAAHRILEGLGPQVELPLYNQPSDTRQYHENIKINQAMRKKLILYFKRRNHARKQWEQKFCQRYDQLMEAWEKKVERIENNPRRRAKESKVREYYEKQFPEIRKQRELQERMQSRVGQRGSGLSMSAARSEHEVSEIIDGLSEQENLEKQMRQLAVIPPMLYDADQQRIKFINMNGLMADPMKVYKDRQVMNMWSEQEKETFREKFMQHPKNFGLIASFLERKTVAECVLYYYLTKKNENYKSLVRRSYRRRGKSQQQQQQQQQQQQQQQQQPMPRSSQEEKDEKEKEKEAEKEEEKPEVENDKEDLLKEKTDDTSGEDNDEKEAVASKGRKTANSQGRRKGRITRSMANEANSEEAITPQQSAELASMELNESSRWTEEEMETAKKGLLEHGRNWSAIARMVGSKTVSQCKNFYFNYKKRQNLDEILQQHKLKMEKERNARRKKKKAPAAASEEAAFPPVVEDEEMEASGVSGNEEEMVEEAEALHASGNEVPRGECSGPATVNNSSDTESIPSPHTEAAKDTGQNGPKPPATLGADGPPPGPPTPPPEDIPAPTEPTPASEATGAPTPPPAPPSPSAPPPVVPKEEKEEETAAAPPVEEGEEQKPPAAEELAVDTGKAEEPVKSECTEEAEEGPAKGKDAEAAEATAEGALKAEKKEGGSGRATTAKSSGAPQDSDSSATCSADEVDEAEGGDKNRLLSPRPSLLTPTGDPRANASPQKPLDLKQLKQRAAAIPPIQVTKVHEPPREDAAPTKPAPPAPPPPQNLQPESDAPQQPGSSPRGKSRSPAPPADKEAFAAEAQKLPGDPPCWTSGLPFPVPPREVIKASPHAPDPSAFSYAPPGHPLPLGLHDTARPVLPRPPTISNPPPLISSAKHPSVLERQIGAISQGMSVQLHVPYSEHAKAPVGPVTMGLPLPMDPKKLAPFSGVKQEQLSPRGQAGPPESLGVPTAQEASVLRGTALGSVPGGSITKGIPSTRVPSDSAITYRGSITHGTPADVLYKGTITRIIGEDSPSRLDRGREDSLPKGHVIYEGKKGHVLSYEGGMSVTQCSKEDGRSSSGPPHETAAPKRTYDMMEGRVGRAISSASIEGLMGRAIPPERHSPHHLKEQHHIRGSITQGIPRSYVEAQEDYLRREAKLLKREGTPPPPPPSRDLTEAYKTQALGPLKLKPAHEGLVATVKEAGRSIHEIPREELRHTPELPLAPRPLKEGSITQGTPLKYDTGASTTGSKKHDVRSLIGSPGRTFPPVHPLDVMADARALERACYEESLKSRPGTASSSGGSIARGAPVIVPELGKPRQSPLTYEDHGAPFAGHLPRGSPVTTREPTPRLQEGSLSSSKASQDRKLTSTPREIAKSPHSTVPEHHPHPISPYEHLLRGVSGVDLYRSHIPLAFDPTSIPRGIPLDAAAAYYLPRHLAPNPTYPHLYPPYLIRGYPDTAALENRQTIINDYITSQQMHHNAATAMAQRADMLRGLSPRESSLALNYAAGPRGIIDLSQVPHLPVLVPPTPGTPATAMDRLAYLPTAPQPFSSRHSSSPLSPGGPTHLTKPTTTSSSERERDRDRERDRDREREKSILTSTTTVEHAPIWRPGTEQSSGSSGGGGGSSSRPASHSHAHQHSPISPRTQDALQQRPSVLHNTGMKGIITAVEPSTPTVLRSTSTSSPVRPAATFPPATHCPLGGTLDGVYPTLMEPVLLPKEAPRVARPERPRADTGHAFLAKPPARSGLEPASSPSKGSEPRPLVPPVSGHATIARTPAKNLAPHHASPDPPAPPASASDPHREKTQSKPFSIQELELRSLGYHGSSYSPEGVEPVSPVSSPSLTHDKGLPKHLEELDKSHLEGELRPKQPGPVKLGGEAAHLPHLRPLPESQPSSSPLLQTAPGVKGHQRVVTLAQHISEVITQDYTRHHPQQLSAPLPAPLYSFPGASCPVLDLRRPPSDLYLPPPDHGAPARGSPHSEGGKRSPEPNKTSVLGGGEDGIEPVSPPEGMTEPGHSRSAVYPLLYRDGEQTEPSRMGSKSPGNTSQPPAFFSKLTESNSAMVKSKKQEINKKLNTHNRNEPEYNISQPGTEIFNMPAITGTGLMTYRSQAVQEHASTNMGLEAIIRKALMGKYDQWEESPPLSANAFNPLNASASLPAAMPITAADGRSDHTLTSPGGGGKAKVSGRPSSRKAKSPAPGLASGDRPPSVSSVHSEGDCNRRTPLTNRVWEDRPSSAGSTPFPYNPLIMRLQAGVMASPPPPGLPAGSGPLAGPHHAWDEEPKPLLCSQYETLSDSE

[11] = Tmax in Balb/c mouse at 10 mg/kg, po administered as single dose measured upto 24 hrs by LC-MS/MS analysis; assay type: ADME, organism-based; settings: in vivo
[12] = Cmax in Balb/c mouse at 10 mg/kg, po administered as single dose measured upto 24 hrs by LC-MS/MS analysis; assay type: ADME, organism-based; set-up: route oral, dose 10 mg/kg, time <=24; settings: in vivo
[13] = Half life in Balb/c mouse at 5 mg/kg, ip administered as single dose measured upto 24 hrs by LC-MS/MS analysis; assay type: ADME, organism-based; settings: in vivo
[14] = AUC (0 to t) in Balb/c mouse at 2 mg/kg, iv administered as single dose measured upto 24 hrs by LC-MS/MS analysis; assay type: ADME, organism-based; set-up: route intravenous, dose 2 mg/kg, time <=24; settings: in vivo
[15] = AUC (0 to t) in Balb/c mouse at 5 mg/kg, ip administered as single dose measured upto 24 hrs by LC-MS/MS analysis; assay type: ADME, organism-based; set-up: route intraperitoneal, dose 5 mg/kg, time <=24; settings: in vivo
[16] = AUC (0 to t) in Balb/c mouse at 10 mg/kg, po administered as single dose measured upto 24 hrs by LC-MS/MS analysis; assay type: ADME, organism-based; set-up: route oral, dose 10 mg/kg, time <=24; settings: in vivo
[17] = AUC (0 to infinity) in Balb/c mouse at 2 mg/kg, iv administered as single dose measured up to 24 hrs by LC-MS/MS analysis; assay type: ADME, organism-based; set-up: route intravenous, dose 2 mg/kg, time <=24; settings: in vivo
[18] = AUC (0 to infinity) in Balb/c mouse at 5 mg/kg, ip administered as single dose measured upto 24 hrs by LC-MS/MS analysis; assay type: ADME, organism-based; set-up: route intraperitoneal, dose 5 mg/kg, time <=24; settings: in vivo
[19] = Apparent clearance during terminal phase in Balb/c mouse at 2 mg/kg, iv administered as single dose measured upto 24 hrs by LC-MS/MS analysis; assay type: ADME, organism-based; settings: in vivo
[20] = Apparent clearance during terminal phase in Balb/c mouse at 5 mg/kg, ip administered as single dose measured upto 24 hrs by LC-MS/MS analysis; assay type: ADME, organism-based; settings: in vivo, 5 mg/kg, 24 h
[21] = Apparent volume of distribution during terminal phase in Balb/c mouse at 2 mg/kg, iv administered as single dose measured upto 24 hrs by LC-MS/MS analysis; assay type: ADME, organism-based; settings: in vivo
[22] = Oral bioavailability in Balb/c mouse at 10 mg/kg administered as single dose measured upto 24 hrs by LC-MS/MS analysis; assay type: ADME, organism-based; settings: in vivo
[23] = Toxicity in Balb/c mouse infected with blood stage Plasmodium yoelii assessed as recrudescence at 10 to 30 mg/kg, ip QD for 5 consecutive days and measured on day 20; assay type: organism-based; settings: in vivo, 120 h, dose 10-30 mg/kg, time 5 day

Compound: Cl.O=C(NO)c1cnc(N2CCC3(CCN(Cc4c[nH]c5ccccc45)C3)CC2)nc1
- IC50 (Plasmodium falciparum [1]): 4.5 nM
- IC50 (Plasmodium falciparum [2]): 4.26 nM
- IC50 (Plasmodium falciparum [3]): 3 nM
- CLint scaled [4]: 7.28 L/h/kg
- Activity [5]: Non-Toxic
- Activity (Plasmodium yoelii): inactive
- Activity (Plasmodium berghei): Active
- Activity (Plasmodium falciparum [6]): Active
- inhibition (Plasmodium falciparum [7]): Active
- IC50 (Plasmodium falciparum [8]): 69.5 nM
- IC50 [9]: 0.343 nM
- IC50 (Histone deacetylase 1): 0.58 nM
- IC50 [10]: 3 nM
- Tmax [11]: 15 min
- Cmax [12]: 2.49 ng/mL
- t1/2 [13]: 26.4 min
- AUC(0-t) at 24 h [14]: 0.117 µg·h/mL
- AUC(0-t) at 24 h [15]: 0.0819 µg·h/mL
- AUC(0-t) at 24 h [16]: 0.00294 µg·h/mL
- AUC(0-inf) [17]: 0.119 µg·h/mL
- AUC(0-inf) [18]: 0.0951 µg·h/mL
- CLz/F [19]: 16.8 L/h/kg
- CLz/F [20]: 34 L/h/kg
- Vz/F [21]: 10.3 L/kg
- bioavailability [22]: 0.5%
- Activity [23]: Toxic
